Measured values published in paper PMC9848156 (Chemical Science, 2022).
Read-outs that look alike come from different tables or passages of the source.

Legend:
[1] = tested on: SARS-CoV-2 infected Vero E6 cells
[2] = tested on: SARS-CoV-2 infected Huh 7.5.1 cells; settings: for EC50: read-out: EC50 Huh 7.5.1
Huh 7.5.1 cells = settings: read-out: CC50 Huh 7.5.1
3CL^pro [3] = biological target: T1, 3CL^pro (Severe acute respiratory syndrome coronavirus 2, UniProt P0DTD1); settings: for IC50: read-out: IC50 against 3CL^pro
[4] = Axial ligand exchange with DMSO, DMF or water followed by 1H-NMR; type: physicochemical
Furin = Furin (Homo sapiens, UniProt P09958); type: biochemical; settings: read-out: IC50 against Furin; three independent experiments
Furin, sequence (P09958 108-794): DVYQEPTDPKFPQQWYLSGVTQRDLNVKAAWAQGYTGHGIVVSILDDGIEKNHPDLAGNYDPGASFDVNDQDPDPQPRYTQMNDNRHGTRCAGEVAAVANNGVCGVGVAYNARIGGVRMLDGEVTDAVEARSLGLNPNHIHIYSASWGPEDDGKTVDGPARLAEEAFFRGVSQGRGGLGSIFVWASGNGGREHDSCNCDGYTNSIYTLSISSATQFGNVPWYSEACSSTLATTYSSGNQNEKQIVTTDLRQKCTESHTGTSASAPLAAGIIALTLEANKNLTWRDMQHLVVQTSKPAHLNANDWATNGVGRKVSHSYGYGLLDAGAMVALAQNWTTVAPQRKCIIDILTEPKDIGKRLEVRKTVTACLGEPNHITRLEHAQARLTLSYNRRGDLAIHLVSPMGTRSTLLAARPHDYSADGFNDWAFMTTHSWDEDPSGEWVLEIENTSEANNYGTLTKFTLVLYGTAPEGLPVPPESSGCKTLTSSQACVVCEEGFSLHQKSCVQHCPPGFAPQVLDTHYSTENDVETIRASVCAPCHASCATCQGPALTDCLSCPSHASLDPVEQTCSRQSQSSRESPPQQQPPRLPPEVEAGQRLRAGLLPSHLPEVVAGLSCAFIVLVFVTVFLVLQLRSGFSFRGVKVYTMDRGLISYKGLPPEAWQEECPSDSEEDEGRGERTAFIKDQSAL

cathepsin B = cathepsin B (Homo sapiens, UniProt P07858); assay: Cathepsin B enzymatic assay; type: biochemical; settings: read-out: IC50 against Cathepsin B; three independent experiments
[5] = biological target: transmembrane serine protease 2 (TMPRSS2) (Homo sapiens, UniProt O15393); assay: TMPRSS2 enzymatic assay; type: biochemical; settings: read-out: IC50 against TMPRSS2; three independent experiments
transmembrane serine protease 2 (TMPRSS2), sequence (O15393 whole entry): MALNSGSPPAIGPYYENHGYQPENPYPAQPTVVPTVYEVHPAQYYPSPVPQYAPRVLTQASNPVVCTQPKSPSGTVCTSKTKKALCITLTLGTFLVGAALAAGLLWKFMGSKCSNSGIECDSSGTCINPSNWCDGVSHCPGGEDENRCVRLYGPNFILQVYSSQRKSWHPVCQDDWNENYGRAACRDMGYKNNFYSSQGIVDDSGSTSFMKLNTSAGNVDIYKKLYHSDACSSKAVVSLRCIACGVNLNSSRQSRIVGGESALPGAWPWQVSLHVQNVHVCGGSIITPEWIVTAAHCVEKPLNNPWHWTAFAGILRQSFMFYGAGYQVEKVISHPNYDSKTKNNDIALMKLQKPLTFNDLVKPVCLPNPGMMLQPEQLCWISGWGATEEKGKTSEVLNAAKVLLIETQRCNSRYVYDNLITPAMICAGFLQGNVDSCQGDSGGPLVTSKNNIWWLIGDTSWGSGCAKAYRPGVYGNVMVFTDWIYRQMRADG

[6] = biological target: SARS-CoV-2 Papain-like protease (PL^pro) (Severe acute respiratory syndrome coronavirus 2, UniProt P0DTD1); type: biochemical; settings: read-out: IC50 against PL^pro
3CL^pro [7] = biological target: T1, 3CL^pro
cathepsin L = cathepsin L (Homo sapiens, UniProt P07711); assay: Cathepsin L enzymatic assay; type: biochemical; settings: read-out: IC50 against Cathepsin L; three independent experiments
cathepsin L, sequence (P07711 114-333): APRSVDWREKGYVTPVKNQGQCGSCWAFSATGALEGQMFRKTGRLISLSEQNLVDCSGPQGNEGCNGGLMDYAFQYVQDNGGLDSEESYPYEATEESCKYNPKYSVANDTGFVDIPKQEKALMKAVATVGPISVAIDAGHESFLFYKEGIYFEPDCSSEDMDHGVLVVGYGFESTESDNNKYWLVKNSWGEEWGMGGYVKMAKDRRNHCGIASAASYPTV

3CL^pro [8] = biological target: T1, 3CL^pro; remark: listed apart in the source
Aqueous solubility tests = type: physicochemical; settings: 0.4–0.1% DMSO or DMF in phosphate-buffered saline
[9] = biological target: dipeptidyl peptidase-4 (DPP4) (Homo sapiens, UniProt P27487); assay: DPP4 enzymatic assay; type: biochemical; settings: read-out: IC50 against DPP4; three independent experiments
dipeptidyl peptidase-4 (DPP4), sequence (P27487 whole entry): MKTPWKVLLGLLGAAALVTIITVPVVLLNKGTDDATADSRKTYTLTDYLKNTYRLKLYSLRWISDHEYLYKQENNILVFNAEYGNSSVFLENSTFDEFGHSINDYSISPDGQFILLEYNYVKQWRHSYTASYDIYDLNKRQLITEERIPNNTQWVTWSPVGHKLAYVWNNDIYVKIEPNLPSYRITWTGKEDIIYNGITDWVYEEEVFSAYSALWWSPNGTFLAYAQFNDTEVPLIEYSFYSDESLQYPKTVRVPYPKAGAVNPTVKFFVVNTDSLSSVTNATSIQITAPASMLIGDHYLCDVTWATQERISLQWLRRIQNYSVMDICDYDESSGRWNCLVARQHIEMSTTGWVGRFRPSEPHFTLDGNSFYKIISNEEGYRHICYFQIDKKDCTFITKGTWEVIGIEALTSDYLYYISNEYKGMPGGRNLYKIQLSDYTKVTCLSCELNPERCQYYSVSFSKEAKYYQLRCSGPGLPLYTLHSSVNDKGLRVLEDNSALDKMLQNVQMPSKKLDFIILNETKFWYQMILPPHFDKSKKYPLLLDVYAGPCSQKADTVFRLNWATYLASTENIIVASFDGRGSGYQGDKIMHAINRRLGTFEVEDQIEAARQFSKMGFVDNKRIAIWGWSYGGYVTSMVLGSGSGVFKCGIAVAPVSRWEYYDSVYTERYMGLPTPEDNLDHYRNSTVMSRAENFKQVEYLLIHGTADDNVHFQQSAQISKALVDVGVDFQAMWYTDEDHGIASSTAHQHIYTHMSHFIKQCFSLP

beta-secretase 1 (BACE1) = beta-secretase 1 (BACE1) (Homo sapiens, UniProt P56817); type: biochemical; settings: read-out: IC50 against BACE1; three independent experiments
beta-secretase 1 (BACE1), sequence (P56817 46-501): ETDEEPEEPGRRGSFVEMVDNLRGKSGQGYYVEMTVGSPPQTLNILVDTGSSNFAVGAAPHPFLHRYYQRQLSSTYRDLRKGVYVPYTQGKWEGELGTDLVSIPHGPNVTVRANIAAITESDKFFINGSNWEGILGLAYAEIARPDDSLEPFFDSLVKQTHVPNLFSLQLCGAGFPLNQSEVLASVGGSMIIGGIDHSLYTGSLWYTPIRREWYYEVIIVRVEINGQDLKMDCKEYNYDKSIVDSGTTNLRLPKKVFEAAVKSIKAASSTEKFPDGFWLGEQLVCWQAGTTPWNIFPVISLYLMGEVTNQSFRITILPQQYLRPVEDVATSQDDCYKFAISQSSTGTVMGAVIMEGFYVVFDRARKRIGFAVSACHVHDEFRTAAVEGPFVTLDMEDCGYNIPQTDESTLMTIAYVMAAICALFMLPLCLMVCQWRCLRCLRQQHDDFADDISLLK

Vero E6 cells = settings: read-out: CC50 Vero E6
[10] = tested on: SARS-CoV-2 infected Vero E6 cells; type: cell-based; settings: immunofluorescence microscopy
in vitro [11] = settings: African green monkey
[12] = tested on: SARS-CoV-2 infected Huh 7.5.1 cells; assay: microbe, parasite or virus in culture; settings: Severe acute respiratory syndrome coronavirus 2, Huh-7.5.1, 48 h, read-out: EC50 Huh 7.5.1
in vitro [13] = settings: human

In the case of `CS(C)=O.O=C([O-])c1ccccn1.[C-]#[O+].[C-]#[O+].[C-]#[O+].[Re+]` [1DMSO, [Re(pic)(CO)3(DMSO)]], the “SI Vero E6 (CC50/EC50; therapeutic index)” value [1] is reported as >9, the “SI Huh 7.5.1 (CC50/EC50; therapeutic index)” value [2] is reported as 9 and the EC50 [2] is reported as 1.8 ± 0.5 µM. For the same molecule, the CC50 (Huh 7.5.1 cells) was 16.5 ± 1.3 µM, the “effect of extending the preincubation time on 3CL^pro inhibition” value (3CL^pro [3]) was “strongly enhance the inhibitory activity over time” and the IC50 (3CL^pro [3]) was 16.5 ± 3.4 µM. The “aqueous stability of the DMSO adduct” value ([4]; 2 : 8 DMSO-d6 : H2O, up to 6 h) was “the majority of the compound remained as the DMSO adduct even after 6 h”.
With `O.O=C([O-])c1ccccn1.[C-]#[O+].[C-]#[O+].[C-]#[O+].[Re+]` [Compound 1, [Re(pic)(CO)3(H2O)]] the IC50 (Furin) was > 100 µM, the IC50 (cathepsin B) was > 100 µM and the IC50 [5] was > 100 µM. For the same molecule, the IC50 [6] was > 100 µM, the “Re content bound to protein” value (3CL^pro [7]) was 0.7 ± 0.2 equivalents of Re per 3CL^pro and the IC50 (cathepsin L) was 53 ± 7 µM. For the same molecule, the “adduct formation with 3CL^pro (deconvoluted mass spectrum)” value (3CL^pro [8]) was “a single attached metal complex”, the “adduct formation with the GC376-3CL^pro adduct (binding competition)” value (3CL^pro [8]) was “did not show the formation of new products” and the “precipitate or aggregate formation by DLS” value (Aqueous solubility tests) was “No particle formation or aggregation was observed”. For the same molecule, the IC50 (3CL^pro [3]) was 9.1 ± 1.8 µM, the IC50 [9] was > 100 µM and the “time to full exchange of the axial ligand in DMF-d7” value [4] was ≤ 6 h. For the same molecule, the “aqua ligand exchange in DMSO-d6” value ([4]; within 5 min) was “rapid exchange of the aqua ligand with DMSO” and the IC50 (beta-secretase 1 (BACE1)) was 83 ± 6 µM.
In the case of `O=C([O-])c1ncccc1F.[C-]#[O+].[C-]#[O+].[C-]#[O+].[Re+]` [Compound 2], the IC50 (3CL^pro [3]) is reported as 19 ± 3.7 µM.
In the case of `O=C([O-])c1cc(O)ccn1.[C-]#[O+].[C-]#[O+].[C-]#[O+].[Re+]` [Compound 18], the IC50 (Furin) is reported as > 100 µM, the IC50 (cathepsin B) is reported as > 100 µM and the IC50 [5] is reported as > 100 µM. For the same molecule, the IC50 [6] was > 100 µM, the IC50 (cathepsin L) was 67 ± 9 µM and the IC50 (3CL^pro [3]) was 4.6 ± 0.5 µM. For the same molecule, the IC50 [9] was > 100 µM and the IC50 (beta-secretase 1 (BACE1)) was 76 ± 8 µM.
`Nc1ccnc(C(=O)[O-])c1.[C-]#[O+].[C-]#[O+].[C-]#[O+].[Re+]` [Compound 20] gave an IC50 (3CL^pro [3]) of 8.4 ± 2.2 µM.
With `O=C([O-])c1cccc(O)n1.[C-]#[O+].[C-]#[O+].[C-]#[O+].[Re+]` [Compound 38] the IC50 (3CL^pro [3]) was 8.8 ± 3.4 µM.
`COc1cccc(C(=O)[O-])n1.[C-]#[O+].[C-]#[O+].[C-]#[O+].[Re+]` [Compound 39] gave an IC50 (3CL^pro [3]) of 8.5 ± 1.9 µM.
`Nc1cccc(C(=O)[O-])n1.[C-]#[O+].[C-]#[O+].[C-]#[O+].[Re+]` [Compound 40] gave an IC50 (3CL^pro [3]) of 10.9 ± 3.1 µM.
With `CN1CCN(C(=O)N[C@@H](Cc2ccccc2)C(=O)N[C@H](/C=C/S(=O)(=O)c2ccccc2)CCc2ccccc2)CC1` [K777] the CC50 (Vero E6 cells) was > 2 µM, the “SI Vero E6 (CC50/EC50; therapeutic index)” value ([1]; Vero E6 cells) was >222 and the EC50 ([1]; read-out: EC50 Vero E6) was 0.009 ± 0.002 µM. The EC50 [2] was > 2 µM, the CC50 (Huh 7.5.1 cells) was > 2 µM and the “concentration protecting cells from viral infection” value [10] was ≤ 125 nM.
In the case of `CCC(CC)COC(=O)[C@H](C)N[P@](=O)(OC[C@H]1O[C@@](C#N)(c2ccc3c(N)ncnn23)[C@H](O)[C@@H]1O)Oc1ccccc1` [Remdesivir], the “SI Vero E6 (CC50/EC50; therapeutic index)” value ([1]; Vero E6 cells) is reported as >4, the CC50 (in vitro [11]) is reported as > 20 µM and the “SI Huh 7.5.1 (CC50/EC50; therapeutic index)” value ([2]; Huh 7.5.1 cells) is reported as >500. The EC50 [12] was < 0.04 µM and the CC50 (in vitro [13]) was > 20 µM.
